Each structure is given as a SMILES string. Where only a bound is given, the exact number is not on record here.

In one assay the target is T1, hEP4 (Homo sapiens, UniProt P35408).
T1 construct: expressed in transfected cells
Put plainly: Functional data, human recombinant EP4 receptor stable transfectants. Type of assay: cell-based. Here is the method: (§1) Human Recombinant EP1, EP2, EP3, EP4, FP, TP, IP and DP Receptors: Stable Transfectants
Plasmids encoding the human EP1, EP2, EP3, EP4, FP, TP, IP and DP receptors were prepared by cloning the respective coding sequences into the eukaryotic expression vector pCEP4 (Invitrogen). The pCEP4 vector contains an Epstein Barr virus (EBV) origin of replication, which permits episomal replication in primate cell lines expressing EBV nuclear antigen (EBNA-1). It also contains a hygromycin resistance gene that is used for eukaryotic selection. […] HEK-293 cells were grown in DMEM with 10% fetal bovine serum (FBS), 250 μg ml^−1 G418 (Life Technologies) and 200 μg ml^−1 gentamicin or penicillin/streptomycin.
For transfection, the cells were grown to 50-60% confluency on 10 cm plates. The plasmid pCEP4 incorporating cDNA inserts for the respective human prostanoid receptor (20 μg) was added to 500 μl of 250 mM CaCl2. […] After 30 min, 9 ml DMEM were added to the mixture. The DNA/DMEM/calcium phosphate mixture was then added to the cells, which had been previously rinsed with 10 ml PBS. The cells were then incubated for 5 hr at 37° C. in humidified 95% air/5% CO2. The calcium phosphate solution was then removed and the cells were treated with 10% glycerol in DMEM for 2 min. The glycerol solution was then replaced by DMEM with 10% FBS. The cells were incubated overnight and the medium was replaced by DMEM/10% FBS containing 250 μg ml^−1 G418 and penicillin/streptomycin. The following day hygromycin B was added to a final concentration of 200 μg ml^−1.
(§2) Ten days after transfection, hygromycin B resistant clones were individually selected and transferred to a separate well on a 24 well plate. At confluence each clone was transferred to one well of a 6 well plate, and then expanded in a 10 cm dish. Cells were maintained under continuous hygromycin selection until use.

For the next assay, the target named is T2, hTP (Homo sapiens, UniProt P21731).
T2 construct: expressed in transfected cells
T2 sequence (P21731 1-343): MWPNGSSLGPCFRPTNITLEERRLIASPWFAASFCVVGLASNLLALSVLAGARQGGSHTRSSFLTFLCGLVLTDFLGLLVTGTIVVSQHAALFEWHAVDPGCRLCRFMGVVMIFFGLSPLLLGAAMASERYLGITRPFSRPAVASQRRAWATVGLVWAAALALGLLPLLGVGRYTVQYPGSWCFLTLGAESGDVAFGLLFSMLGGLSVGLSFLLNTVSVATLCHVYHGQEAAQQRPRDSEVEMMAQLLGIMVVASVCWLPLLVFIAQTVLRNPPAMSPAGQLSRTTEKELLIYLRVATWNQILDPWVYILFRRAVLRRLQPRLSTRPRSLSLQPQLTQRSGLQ
Briefly: Functional data, human recombinant TP receptor stable transfectants. Type of assay: cell-based. The procedure:
as §1
Plasmids encoding the human EP1, EP2, EP3, EP4, FP, TP, IP and DP receptors were prepared by cloning the respective coding sequences into the eukaryotic expression vector pCEP4 (Invitrogen). The pCEP4 vector contains an Epstein Barr virus (EBV) origin of replication, which permits episomal replication in primate cell lines expressing EBV nuclear antigen (EBNA-1). It also contains a hygromycin resistance gene that is used for eukaryotic selection. The cells employed for stable transfection were human embryonic kidney cells (HEK-293) that were transfected with and express the EBNA-1 protein. These HEK-293-EBNA cells (Invitrogen) were grown in medium containing Geneticin (G418) to maintain expression of the EBNA-1 protein. HEK-293 cells were grown in DMEM with 10% fetal bovine serum (FBS), 250 μg ml^−1 G418 (Life Technologies) and 200 μg ml^−1 gentamicin or penicillin/streptomycin.
For transfection, the cells were grown to 50-60% confluency on 10 cm plates. The plasmid pCEP4 incorporating cDNA inserts for the respective human prostanoid receptor (20 μg) was added to 500 μl of 250 mM CaCl2. HEPES buffered saline×2 (2×HBS, 280 mM NaCl, 20 mM HEPES acid, 1.5 mM Na2 HPO4, pH 7.05-7.12) was then added dropwise to a total of 500 μl, with continuous vortexing at room temperature. After 30 min, 9 ml DMEM were added to the mixture. The DNA/DMEM/calcium phosphate mixture was then added to the cells, which had been previously rinsed with 10 ml PBS. The cells were then incubated for 5 hr at 37° C. in humidified 95% air/5% CO2. The calcium phosphate solution was then removed and the cells were treated with 10% glycerol in DMEM for 2 min. The glycerol solution was then replaced by DMEM with 10% FBS. The cells were incubated overnight and the medium was replaced by DMEM/10% FBS containing 250 μg ml^−1 G418 and penicillin/streptomycin. The following day hygromycin B was added to a final concentration of 200 μg ml^−1.
as §2

T1 sequence (P35408 whole entry): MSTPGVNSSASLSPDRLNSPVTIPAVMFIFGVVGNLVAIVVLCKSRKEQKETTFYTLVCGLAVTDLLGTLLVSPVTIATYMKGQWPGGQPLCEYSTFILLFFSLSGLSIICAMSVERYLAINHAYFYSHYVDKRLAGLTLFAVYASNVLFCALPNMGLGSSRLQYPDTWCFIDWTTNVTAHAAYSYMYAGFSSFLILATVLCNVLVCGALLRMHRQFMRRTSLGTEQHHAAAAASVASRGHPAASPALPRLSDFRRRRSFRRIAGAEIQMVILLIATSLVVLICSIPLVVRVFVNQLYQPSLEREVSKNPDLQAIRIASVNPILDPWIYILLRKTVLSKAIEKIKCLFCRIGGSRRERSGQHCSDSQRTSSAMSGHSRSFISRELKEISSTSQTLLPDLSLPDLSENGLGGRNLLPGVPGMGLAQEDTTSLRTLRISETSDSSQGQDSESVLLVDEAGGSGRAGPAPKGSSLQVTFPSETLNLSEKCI

Usually EC50 stands for the midpoint of the concentration-response curve. As for `O=C(O)CCCCCCN1C(=O)CC[C@@H]1CCC(O)Cc1cccc(Cl)c1` (stereo partly drawn) [Example 1, 7-[2S-[3R-Hydroxy-4-(chloro-phenyl)-butyl]-5-oxo-pyrrolidin-1-yl]-heptanoic acid], the EC50 on hEP4 is 0.7 nM; on hTP it was over 10000 nM.
